Results: patent US4485088A, “Method of treatment of fibrotic lesions by topical administration of lathyrogenic drugs” (Bio-Products, Inc., priority 1982, dated 1984)
Entries after “also recorded” stand apart in the source; their conditions may differ. Counter-ions that a name gives are not always drawn. Like-named read-outs stand apart in the source and are kept apart here.

Key:
[1] = Skin penetration of BAPN base versus BAPN fumarate; type: in vitro ADME; settings: BAPN base vs BAPN fumarate
[2] = Storage stability of BAPN base; type: physicochemical
[3] = system: human collagen; settings: in vivo; cited from earlier work
[4] = Recovery from urine after administration on skin through hydrophilic bag container (Example 2); type: in vivo, rats
Method: The experimental conditions were similar to those of Example 1 for Group 6. A 0.4 ml solution of 1.1M β-aminopropionitrile fumarate containing 200 mg/ml and 2 μCi of the same ^14 C labeled substance was placed into a hydrophilic bag membrane. This membrane contained 80% water. The container bag was placed onto the shaved skin area of 4 cm^2, covered with impermeable occlusive dressing represented by Blenderm surgical tape (3M, Minnesota). The rats were placed in metabolic cages and at defined time intervals, the urine was collected and the amount of radioactive drug determined.
Time indicates the urine sampling period. Recovery is given in percent of the dose administered into the hydrophilic bag.

[5] = system: lysyl oxidase; settings: cited from earlier work
[6] = system: scleroderma; settings: cited from earlier work
[7] = systemic, dogs; cited from earlier work
[8] = Topical cytotoxicity of BAPN; type: in vivo
Text: Although the pathogenesis of the above disorders may differ, in every one it was postulated that the physical properties of the scar tissue were affected by abnormal cross-linking of the collagenous component. A variety of methods was proposed and used to alleviate the problems of abnormal reactivity of polymerized scar tissue (Peacock and Van Winkle 1976). […] The ideal method of topical administration would be the noninvasive percutaneous resorption of BAPN painted onto the skin as proposed in this disclosure. […] These findings assured me that topical BAPN is safe, effective and optimal therapeutic regimen to achieve significant interference with maturation of collagenous structure in tissues with an injury.

[9] = system: lysyl oxidase; assay: Lysyl oxidase activity in granuloma tissue after topical application (Example 4); type: in vivo, rats, Sprague-Dawley
Method: Two groups of rats, four rats in each group, 250 g body weight, Sprague-Dawley males, were implanted subcutaneously with a polyvinylalcohol sponge (Ivalon, Unipoint Labs, New Jersey) in the dorsal region through an incision distal from the placement of the sponge.
A solution of 0.1 ml of β-aminopropionitrile (200 mg BAPN/ml) was applied every 12 hours onto the skin over the implanted sponge for a total of seven days. Then the rats were sacrificed, reactive granuloma tissue excised and used for the determination of the activity of lysyl oxidase.
There were four rats in each group.
Variability is given by standard deviation.
Significance of the results tested by Student's t-test.

[10] = system: collagen; settings: cited from earlier work
[11] = system: lysyl oxidase; settings: single systemic moderate dose; cited from earlier work
[12] = systemic, rats; cited from earlier work
[13] = Work of flexion of tenolyzed flexor profundus tendon (Example 5); type: in vivo, White Leghorn chickens
Text: will document the therapeutic effectiveness of direct infusions of β-aminopropionitrile fumarate solution into the dissected peritendinous adhesions in a rooster model of tendon injury.
Adult White Leghorn chickens were sedated with Pentothal, fixed to the operating table and given metacarpal local anesthesia with 1% xylocaine. Following surgical prep of the foot, a tourniquet was applied. Through a mid-lateral incision the sublimus tendon was removed from the long digit of both feet and a 4-0 braided stainless steel wire was passed through the entire length of the remaining profundus tendon to promote injury to the tendon by "scarification". The incision was closed with a continuous nylon suture, 4-0. Both feet were then incorporated in a plaster of Paris dressing with the feet in a functional position permitting the animals to walk while in the plaster.
Three weeks later the animals were prepared for surgery as above and the original incision was opened. A complete tenolysis was performed freeing the profundus tendon from surrounding fibrotic adhesions. […]
After 5 days of BAPN application the animals were sacrificed, the plaster dressings removed, and the legs amputated. […] The leg was then mounted in an Instron Tensiometer and measured traction was applied to the flexor profundus tendon at a rate of 2.5 cm/min while the flexion of the three digital joints was measured. […]

[14] = Percutaneous absorption of BAPN-fumarate, drug recovery in urine (Example 1); type: in vivo, rats, Sprague Dawley
Method: Adult rats, Sprague Dawley strain, were shaved on the dorsum. A 0.1 ml solution of 0.16M β-aminopropionitrile fumarate, containing 30 mg BAPN/ml of phosphate buffer (0.1M, pH 7.2) and for easy detection 2 μCi of ^14 C-β-aminopropionitrile fumarate was painted on the shaved skin area 2×2 cm of a rat. In another rat, the shaved skin was washed first with 2% Ivory soap, in the next group the skin area after painting was covered with occlusive bandage. In another group of rats (Table 1) the drug was administered onto the skin the drug in 60% dimethyl sulfoxide, a solvent known to increase percutaneous absorption. Finally, in the last group (Table 1), the basic solution was administered into a small container made of a hydrogel polymer. This hydrogel is characterized by containing 80% water. It makes good contact with the skin, allows penetration of the drug through the container wall, hydrates the skin under the occlusive dressing, thus enhancing the percutaneous transport.
^14 C--BAPNfumarate, 2 μCi in 30 mg BAPNfumarate/ml, 0.1 ml
*% recovered in 24 hours

[15] = Acute toxicity, LD50 (Example 3); design: species or system CD-1 mice; settings: mouse, in vivo, 24-hour observation
Method: The determination of lethal dose, killing within a certain time after the administration of the tested drug 50% of the exposed animals, is a standard method of evaluation of the toxicity of a drug.
A total of 40 male CD-1 mice with a body weight of 20 g were injected either intraperitoneally with β-aminopropionitrile fumarate or the drug was applied in a solution onto the shaved dorsal aspect of the skin. Four dosage levels spaced in geometric progression were evaluated using five animals for each dose.

[16] = system: collagen; settings: cited from earlier work; remark: listed apart in the source
[17] = system: monoamine oxidase (MAO); settings: cited from earlier work
[18] = system: lysyl oxidase; settings: isoniazid with BAPN; cited from earlier work

SMILES: N#CCCN [BAPN base]
- Skin penetration relative to BAPN fumarate [1]: approximately five times faster
- Skin penetration relative to BAPN fumarate ([1]; listed as BAPN-base): higher penetration
- Stability under storage [2]: unstable under storage, undergoing hydrolysis forming ammonia and toxic acrylonitrile

SMILES: N#CCCN [BAPN, β-aminopropionitrile]
- Covalent bonding of human collagen / clinical benefit [3]: decreased covalent bonding of human collagen with significant clinical benefit was demonstrated
- Hypersensitivity [3]: a significant number of the patients exhibited hypersensitivity to the agent
- Recovery in Urine (In % of the Total Dose) ([4]; 4 hours): 0.5%
- Recovery in Urine (In % of the Total Dose) ([4]; 8 hours): 1.01%
- Recovery in Urine (In % of the Total Dose) ([4]; 12 hours): 2.37%
- Recovery in Urine (In % of the Total Dose) ([4]; 24 hours): 5.40%
- Recovery in Urine (In % of the Total Dose) ([4]; 72 hours): 9.9%
- Recovery in Urine (In % of the Total Dose) ([4]; 96 hours): 15.2%
- Recovery in Urine (In % of the Total Dose) ([4]; 120 hours): 22.5%
- Concentration inhibiting lysyl oxidase [5]: 10^-7 M
- Effectiveness as lathyrogenic agent on lysyl oxidase [5]: the most effective
- Reversibility of lysyl oxidase inhibition [5]: irreversible
- Toxic side effects, short-term treatment ([6]; 2 g/day, short-term): no toxic side effects were noted
- Adverse reactions, longer courses ([6]; longer courses of treatment): prohibitive reactions, such as allergic skin rash and hemolytic anemia
- Side effects [7]: undesirable side effects
- Tendon gliding / joint stiffness [7]: significantly improve the tendon gliding fraction or reduce stiffness
- Topical cytotoxicity, morphological or ultrastructural [8]: no morphological or ultrastructural evidence of topical cytotoxicity is found
- Inhibition of lysyl oxidase in granuloma tissue ([9]; painted onto skin over implanted sponge): significant inhibition of the enzyme activity in the lesion; also recorded: effectively inhibits lysyl oxidase in granuloma tissue
- General toxicity at lathyrogenic dosages ([10]; systemic, animals): the animals stop growing, lose body weight and lower their food intake
- Blocking the polymerization of collagen ([10]; various animal models of fibrotic lesion): very effective
- Time to recovery of lysyl oxidase activity in granuloma tissue [11]: 6 to 12 h
- Side effects [12]: undesirable side effects
- Tendon gliding / joint stiffness [12]: significantly improve the tendon gliding fraction or reduce stiffness

SMILES: N#CCCN [BAPN-fumarate, β-aminopropionitrile fumarate]
- Tendon gliding ([13]; topical infusion): glided more easily; much lower force was needed to flex the finger
- Work of Flexion (Mean) ([13]; topical infusion every 12 hours for 5 days, 300 mg/ml, SD 4.25, saline control 44.8 (SD 9.9), P < 0.01): 13.10 gm/degree
- Increase of delivery, Group 6 compared with Group 1 ([14]; hydrophilic container with occlusive dressing vs phosphate buffer on intact skin): ~40 times
- Drug Recovery in the Urine, % Recovered in 6 hours ([14]; in phosphate buffer in 60% DMSO): 11.66%
- Drug Recovery in the Urine, % Recovered in 6 hours ([14]; in phosphate buffer in 60% DMSO, skin washed in 2% Ivory soap): 10.10%
- Drug Recovery in the Urine, % Recovered in 6 hours ([14]; in phosphate buffer on intact skin): 0.97%
- Drug Recovery in the Urine, % Recovered in 6 hours ([14]; in phosphate buffer, skin washed with 2% Ivory soap): 2.17%
- Drug Recovery in the Urine, % Recovered in 6 hours ([14]; in phosphate buffer, skin washed with 2% Ivory soap, occlusive bandage): 10.56%
- Drug Recovery in the Urine, % recovered in 24 hours ([14]; in phosphate buffer, skin washed with 2% Ivory soap, hydrophilic container, occlusive bandage, 24 hours): 35.00%
- Release / penetration over time ([4]; 120 hours of observation): continuous at the constant rate
- LD50 at 24 h ([15]; ip, intraperitoneally): 3000 mg/kg
- LD50 at 24 h ([15]; topical or ocular, percutaneously): 23100 mg/kg
- Lysyl Oxidase Activity in the granuloma tissue ([9]; topical, 0.1 ml of 200 mg/ml every 12 hours for seven days, control 36.2 ± 7.1, P < 0.001, standard deviation): 1.8 ± 0.3 DPM/mg protein

SMILES: CC(C)(S)[C@@H](N)C(=O)O [D-penicillamine]
- Changes in metal content in tissues and fluids ([16]; after treatment): Striking changes in the metal content in various tissues and fluids
- Acute hypersensitivity reactions ([16]; clinical studies, systemic): high incidence of acute hypersensitivity reactions
- Decrease of structural stability of collagen ([16]; systemic): well-documented
- Direct inhibition of lysyl oxidase [5]: direct inhibition of lysyl oxidase by D-penicillamine was demonstrated

SMILES: N#CCN [aminoacetonitrile]
- Effectiveness as lathyrogenic agent on lysyl oxidase [5]: the most effective

SMILES: NNC(=O)c1ccncc1 [isoniazid]
- Lysyl oxidase inhibition [5]: weak lysyl oxidase and MAO inhibitor
- Monoamine oxidase (MAO) inhibition [17]: weak lysyl oxidase and MAO inhibitor
- Lathyritic effect of BAPN in combination [18]: potentiate the lathyritic effects of BAPN

SMILES: C#CCN(C)Cc1ccccc1 [pargyline]
- Monoamine oxidase (MAO) inhibition [17]: monoamine oxidase (MAO) inhibitor
